# Key:
# [1] = system: MMTV-PyMT organoids; assay: Co-culture of pre-treated splenic T cells with MMTV-PyMT organoids (MTT, cleaved-caspase 3); assay type: cell-based, mouse; settings: CD4 or CD8 T cells pre-treated with docetaxel
# Experimental: Preparation of T cells: T cells isolated from mouse spleens or from mouse mammary tumors were cultured in Roswell Park Memorial Institute (RPMI) 1640 Medium (Thermo Fisher Scientific, Cat. No. 21875034) containing FBS (10%, Thermo Fisher Scientific, Cat. No. A4766801), Penicillin/streptomycin (10,000 U/ml; Thermo Fisher Scientific, Cat. No. 15140-122), IL2 (Thermo Fisher Scientific, Cat. No. PMC0025), β-mercaptoethanol (50 μmol/L) and Ultraglutamine (2 mmol/L, Lonza, Cat. No. BE17-605E/U1). T cells were kept in 20% O2, 5% CO2 and at 37 degrees Celsius
# In order to assess the direct effects of docetaxel on T cell activation for T cells isolated from the spleen, T cells were cultured in the absence of CD3 and CD28 antibodies.
# For T cells isolated from mouse mammary tumors, T cells were directly co-cultured with tumor organoids after FACS isolation. For T cells isolated from the spleen, T cells were treated for 72 h with PBS or with docetaxel (docetaxel 10 nmol/L), in the presence or absence of an LCKi (10 μmol/L, Merck Millipore, Cat. No. 213743-31-8). To evaluate the docetaxel-specificity of our observations, T cells were treated with paclitaxel 10 nmol/L or carboplatin 50 μmol/L for 72 h. […]
# Following co-culture, medium was removed, and cultures were washed in PBS to remove T cells. […] Plates were read with a 565 nm wavelength. […]
# [2] = system: human healthy lung organoids; assay: Healthy organoids killing assay with tumor-reactive T cells; assay type: cell-based; settings: tumor-reactive T cells pre-treated with docetaxel
# Experimental: To express luciferase in the tumor organoids, we used pLenti CMV Puro LUC (w168-1; Plasmid #17477; Addgene). Tumor-reactive PBMC were thawed in pre-warmed T cell medium and incubated for 15 minutes with 25 U/ml Benzonase. After washing, cells were re-suspended at 2−3×10^6 cells/ml in T cell medium and cultured overnight at 37° C. The day after, PBMC were incubated with (or without) 10 nmol/L docetaxel for 48 hr. To determine the sensitivity of tumor and healthy organoids to T cell-mediated killing, flatbottom non-tissue culture treated plates were coated with 5 μg/ml αCD28 and kept at 4° C. overnight prior to co-culture. Tumor organoids were previously transduced with luciferase reporter gene. Organoids were isolated from Geltrex 48 hours prior to co-culture and stimulated with 200 ng/ml IFNγ for 24 hr prior to co-culture. The next day, part of the organoids was dissociated to single cells and counted using a hemocytometer. […] At the end of the 72 hours, tumor and healthy organoids viability in the different conditions was evaluated by microscopy, taking bright-field pictures at 5 and 10× magnification. Tumor cell viability in the different conditions was also measured by luciferase reporter assay using 3 μg/mL luciferin. Luminescence was measured with a Tecan reader (1,000 ms exposure).
# [3] = system: KB1P organoids; assay: Co-culture of pre-treated splenic T cells with KB1P organoids (MTT, cleaved-caspase 3); assay type: cell-based, mouse; settings: T cells that cannot mature nor produce a TCR response
# [4] = system: MMTV-PyMT organoids; assay: MTT measurement of MMTV-PyMT organoid survival upon increasing doses of docetaxel; assay type: cell-based; settings: Mus musculus, docetaxel for 72 h
# Experimental: Breast cancer organoids were derived from K14-Cre; Brca1fl/fl; p53fl/fl mouse mammary tumors (KB1P (Kester, L., et al. Clin Cancer Res, 2022.)) and from MMTV-PyMT (Duarte, A. A., et al. Nat Methods, 2018. 15(2): p. 134-140) mouse mammary tumors. Both lines were cultured in 50 μl drops of Cultrex PathClear Reduced Growth Factor Basement Membrane Extract Type 2 (BME, Amsbio, 3533-005-02). KB1P organoids were cultured in Advanced Dulbecco's modified Eagle's medium (adDMEM/F12; Thermo Fisher Scientific. Cat. No. 12634-010) containing Hepes (10 mmol/L; Thermo Fisher Scientific, Cat. No. 15630-056), Penicillin/streptomycin (10,000 U/ml; Thermo Fisher Scientific, Cat. No. 15140-122), B27 (2% Thermo Fisher Scientific, Cat. No. 17504-044), N-acetylcysteine (1.25 mM; Sigma-Aldrich, Cat. No. A9165) and fibroblast growth factor (FGF, 12 ng/ml; Invitrogen, Cat. No. PHG0261). MMTV-PyMT organoids were cultured in DMEM/F12 GlutaMAX (Gibco, Cat. No 10565018) supplemented with 10 mmol/L Hepes (Gibco, Cat. No 15630106), Penicillin/streptomycin (10,000 U/ml; Thermo Fisher Scientific, Cat. No. 15140-122), B27 (2% Thermo Fisher Scientific, Cat. No. 17504-044) and fibroblast growth factor (FGF, 12 ng/ml; Invitrogen, Cat. No. PHG0261). […]
# Following co-culture, medium was removed, and cultures were washed in PBS to remove T cells. […] Plates were read with a 565 nm wavelength.
structure (smiles),measurement,setting,value
CC(=O)O[C@@]12CO[C@@H]1C[C@H](O)[C@@]1(C)C(=O)[C@H](O)C3=C(C)[C@@H](OC(=O)[C@H](O)[C@@H](NC(=O)OC(C)(C)C)c4ccccc4)C[C@@](O)([C@@H](OC(=O)c4ccccc4)[C@H]21)C3(C)C [docetaxel],T cell-mediated killing in presence or absence of LCKi,[1],TCR-independent increase of T cell-mediated killing
same,killing of healthy organoids,[2],not against healthy organoids
same,T cell-mediated killing by T cells from NOD-SCID IL2rg-/- mice,[3],triggered T cell-mediated killing
same,IC50,[4],130 nM

# Source: patent US20250387481A1, “PRE-TREATED T CELLS FOR USE AS A MEDICAMENT” (STICHTING HET NEDERLANDS KANKER INSTITUUT-ANTONI VAN …, priority 2022, published 2025)
